Test results published in paper PMC11270923 (BMC Chemistry, 2024).

Assay: Shake-flask solubility of acetaminophen in aqueous protic ionic liquid solutions (UV-vis at 243 nm)
Assay type: physicochemical
Experimental: The experimental solubility results were determined using a variety of techniques, including the shake-flask method. Aqueous binary mixtures based on PILs have been made utilizing an analytical balance with a 10^–4 g precision for determining the solubility results. Glass vials with a specific amount of water + PILs were filled with the extra acetaminophen. Following that, the samples were combined for 3 h and left for three days in a water bath thermostat (ED, Julabo Co., Germany) with temperature control and an uncertainty of 0.01 K. To separate the liquid and solid phases, a Hettich D-7200 centrifuge was employed (with 4000 RPM at room temperature at 10 min). An ethanol + water solution was applied to dilute the liquid phase after the saturated solutions were filtered through a […] PTFE filter. Subsequently, the drug concentration in the solutions was ascertained using a calibration curve and a UV–vis spectrometer at 243 nm.

With CC(=O)Nc1ccc(O)cc1 [ACP, Acetaminophen] the “solubility 10^5x1^exp” value (water+[DEA]La w3=0.0000 298.15 K 866 hPa) was 1.839 mole fraction x10^5, the “solubility 10^5x1^exp” value (water+[DEA]La w3=0.0000 303.15 K 866 hPa) was 2.239 mole fraction x10^5 and the “solubility 10^5x1^exp” value (water+[DEA]La w3=0.0000 308.15 K 866 hPa) was 2.545 mole fraction x10^5. For the same compound, the “solubility 10^5x1^exp” value (water+[DEA]La w3=0.0000 313.15 K 866 hPa) was 3.009 mole fraction x10^5, the “solubility 10^5x1^exp” value (water+[DEA]La w3=0.0200 298.15 K 866 hPa) was 2.492 mole fraction x10^5 and the “solubility 10^5x1^exp” value (water+[DEA]La w3=0.0200 303.15 K 866 hPa) was 3.159 mole fraction x10^5. For the same compound, the “solubility 10^5x1^exp” value (water+[DEA]La w3=0.0200 308.15 K 866 hPa) was 3.555 mole fraction x10^5, the “solubility 10^5x1^exp” value (water+[DEA]La w3=0.0200 313.15 K 866 hPa) was 3.722 mole fraction x10^5 and the “solubility 10^5x1^exp” value (water+[DEA]La w3=0.0500 298.15 K 866 hPa) was 3.181 mole fraction x10^5. For the same compound, the “solubility 10^5x1^exp” value (water+[DEA]La w3=0.0500 303.15 K 866 hPa) was 3.576 mole fraction x10^5, the “solubility 10^5x1^exp” value (water+[DEA]La w3=0.0500 308.15 K 866 hPa) was 3.917 mole fraction x10^5 and the “solubility 10^5x1^exp” value (water+[DEA]La w3=0.0500 313.15 K 866 hPa) was 4.227 mole fraction x10^5. For the same compound, the “solubility 10^5x1^exp” value (water+[DEA]La w3=0.0700 298.15 K 866 hPa) was 3.452 mole fraction x10^5, the “solubility 10^5x1^exp” value (water+[DEA]La w3=0.0700 303.15 K 866 hPa) was 3.977 mole fraction x10^5 and the “solubility 10^5x1^exp” value (water+[DEA]La w3=0.0700 308.15 K 866 hPa) was 4.167 mole fraction x10^5. The “solubility 10^5x1^exp” value (water+[DEA]La w3=0.0700 313.15 K 866 hPa) was 4.514 mole fraction x10^5, the “solubility 10^5x1^exp” value (water+[DEA]La w3=0.1000 298.15 K 866 hPa) was 3.849 mole fraction x10^5 and the “solubility 10^5x1^exp” value (water+[DEA]La w3=0.1000 303.15 K 866 hPa) was 4.220 mole fraction x10^5. For the same compound, the “solubility 10^5x1^exp” value (water+[DEA]La w3=0.1000 308.15 K 866 hPa) was 4.793 mole fraction x10^5, the “solubility 10^5x1^exp” value (water+[DEA]La w3=0.1000 313.15 K 866 hPa) was 5.266 mole fraction x10^5 and the “solubility 10^5x1^exp” value (water+[DEA]La w3=0.1500 298.15 K 866 hPa) was 4.290 mole fraction x10^5. For the same compound, the “solubility 10^5x1^exp” value (water+[DEA]La w3=0.1500 303.15 K 866 hPa) was 4.611 mole fraction x10^5, the “solubility 10^5x1^exp” value (water+[DEA]La w3=0.1500 308.15 K 866 hPa) was 5.038 mole fraction x10^5 and the “solubility 10^5x1^exp” value (water+[DEA]La w3=0.1500 313.15 K 866 hPa) was 5.633 mole fraction x10^5. The “solubility 10^5x1^exp” value (water+[DEA]La w3=0.2000 298.15 K 866 hPa) was 4.669 mole fraction x10^5, the “solubility 10^5x1^exp” value (water+[DEA]La w3=0.2000 303.15 K 866 hPa) was 5.223 mole fraction x10^5 and the “solubility 10^5x1^exp” value (water+[DEA]La w3=0.2000 308.15 K 866 hPa) was 5.710 mole fraction x10^5. For the same compound, the “solubility 10^5x1^exp” value (water+[DEA]La w3=0.2000 313.15 K 866 hPa) was 6.188 mole fraction x10^5, the “solubility 10^5x1^exp” value (water+[MEA]La w3=0.0000 298.15 K 866 hPa) was 1.839 mole fraction x10^5 and the “solubility 10^5x1^exp” value (water+[MEA]La w3=0.0000 303.15 K 866 hPa) was 2.239 mole fraction x10^5. For the same compound, the “solubility 10^5x1^exp” value (water+[MEA]La w3=0.0000 308.15 K 866 hPa) was 2.545 mole fraction x10^5, the “solubility 10^5x1^exp” value (water+[MEA]La w3=0.0000 313.15 K 866 hPa) was 3.009 mole fraction x10^5 and the “solubility 10^5x1^exp” value (water+[MEA]La w3=0.0200 298.15 K 866 hPa) was 2.750 mole fraction x10^5. The “solubility 10^5x1^exp” value (water+[MEA]La w3=0.0200 303.15 K 866 hPa) was 3.417 mole fraction x10^5, the “solubility 10^5x1^exp” value (water+[MEA]La w3=0.0200 308.15 K 866 hPa) was 3.802 mole fraction x10^5 and the “solubility 10^5x1^exp” value (water+[MEA]La w3=0.0200 313.15 K 866 hPa) was 4.007 mole fraction x10^5. The “solubility 10^5x1^exp” value (water+[MEA]La w3=0.0500 298.15 K 866 hPa) was 3.256 mole fraction x10^5, the “solubility 10^5x1^exp” value (water+[MEA]La w3=0.0500 303.15 K 866 hPa) was 3.861 mole fraction x10^5 and the “solubility 10^5x1^exp” value (water+[MEA]La w3=0.0500 308.15 K 866 hPa) was 4.055 mole fraction x10^5. For the same compound, the “solubility 10^5x1^exp” value (water+[MEA]La w3=0.0500 313.15 K 866 hPa) was 4.320 mole fraction x10^5, the “solubility 10^5x1^exp” value (water+[MEA]La w3=0.0700 298.15 K 866 hPa) was 3.884 mole fraction x10^5 and the “solubility 10^5x1^exp” value (water+[MEA]La w3=0.0700 303.15 K 866 hPa) was 4.588 mole fraction x10^5. The “solubility 10^5x1^exp” value (water+[MEA]La w3=0.0700 308.15 K 866 hPa) was 4.675 mole fraction x10^5, the “solubility 10^5x1^exp” value (water+[MEA]La w3=0.0700 313.15 K 866 hPa) was 5.025 mole fraction x10^5 and the “solubility 10^5x1^exp” value (water+[MEA]La w3=0.1000 298.15 K 866 hPa) was 4.380 mole fraction x10^5. For the same compound, the “solubility 10^5x1^exp” value (water+[MEA]La w3=0.1000 303.15 K 866 hPa) was 4.807 mole fraction x10^5, the “solubility 10^5x1^exp” value (water+[MEA]La w3=0.1000 308.15 K 866 hPa) was 5.407 mole fraction x10^5 and the “solubility 10^5x1^exp” value (water+[MEA]La w3=0.1000 313.15 K 866 hPa) was 5.600 mole fraction x10^5. The “solubility 10^5x1^exp” value (water+[MEA]La w3=0.1500 298.15 K 866 hPa) was 4.962 mole fraction x10^5, the “solubility 10^5x1^exp” value (water+[MEA]La w3=0.1500 303.15 K 866 hPa) was 5.658 mole fraction x10^5 and the “solubility 10^5x1^exp” value (water+[MEA]La w3=0.1500 308.15 K 866 hPa) was 6.128 mole fraction x10^5. The “solubility 10^5x1^exp” value (water+[MEA]La w3=0.1500 313.15 K 866 hPa) was 6.665 mole fraction x10^5, the “solubility 10^5x1^exp” value (water+[MEA]La w3=0.2000 298.15 K 866 hPa) was 5.589 mole fraction x10^5 and the “solubility 10^5x1^exp” value (water+[MEA]La w3=0.2000 303.15 K 866 hPa) was 6.123 mole fraction x10^5. For the same compound, the “solubility 10^5x1^exp” value (water+[MEA]La w3=0.2000 308.15 K 866 hPa) was 6.695 mole fraction x10^5, the “solubility 10^5x1^exp” value (water+[MEA]La w3=0.2000 313.15 K 866 hPa) was 7.337 mole fraction x10^5 and the “solubility 10^5x1^exp” value (water+[TEA]La w3=0.0000 298.15 K 866 hPa) was 1.839 mole fraction x10^5. For the same compound, the “solubility 10^5x1^exp” value (water+[TEA]La w3=0.0000 303.15 K 866 hPa) was 2.239 mole fraction x10^5, the “solubility 10^5x1^exp” value (water+[TEA]La w3=0.0000 308.15 K 866 hPa) was 2.545 mole fraction x10^5 and the “solubility 10^5x1^exp” value (water+[TEA]La w3=0.0000 313.15 K 866 hPa) was 3.009 mole fraction x10^5. For the same compound, the “solubility 10^5x1^exp” value (water+[TEA]La w3=0.0200 298.15 K 866 hPa) was 2.161 mole fraction x10^5, the “solubility 10^5x1^exp” value (water+[TEA]La w3=0.0200 303.15 K 866 hPa) was 2.632 mole fraction x10^5 and the “solubility 10^5x1^exp” value (water+[TEA]La w3=0.0200 308.15 K 866 hPa) was 2.940 mole fraction x10^5. The “solubility 10^5x1^exp” value (water+[TEA]La w3=0.0200 313.15 K 866 hPa) was 3.334 mole fraction x10^5, the “solubility 10^5x1^exp” value (water+[TEA]La w3=0.0500 298.15 K 866 hPa) was 2.597 mole fraction x10^5 and the “solubility 10^5x1^exp” value (water+[TEA]La w3=0.0500 303.15 K 866 hPa) was 2.944 mole fraction x10^5. For the same compound, the “solubility 10^5x1^exp” value (water+[TEA]La w3=0.0500 308.15 K 866 hPa) was 3.210 mole fraction x10^5, the “solubility 10^5x1^exp” value (water+[TEA]La w3=0.0500 313.15 K 866 hPa) was 3.521 mole fraction x10^5 and the “solubility 10^5x1^exp” value (water+[TEA]La w3=0.0700 298.15 K 866 hPa) was 2.908 mole fraction x10^5. For the same compound, the “solubility 10^5x1^exp” value (water+[TEA]La w3=0.0700 303.15 K 866 hPa) was 3.461 mole fraction x10^5, the “solubility 10^5x1^exp” value (water+[TEA]La w3=0.0700 308.15 K 866 hPa) was 3.584 mole fraction x10^5 and the “solubility 10^5x1^exp” value (water+[TEA]La w3=0.0700 313.15 K 866 hPa) was 3.929 mole fraction x10^5. The “solubility 10^5x1^exp” value (water+[TEA]La w3=0.1000 298.15 K 866 hPa) was 3.094 mole fraction x10^5, the “solubility 10^5x1^exp” value (water+[TEA]La w3=0.1000 303.15 K 866 hPa) was 3.834 mole fraction x10^5 and the “solubility 10^5x1^exp” value (water+[TEA]La w3=0.1000 308.15 K 866 hPa) was 4.208 mole fraction x10^5. For the same compound, the “solubility 10^5x1^exp” value (water+[TEA]La w3=0.1000 313.15 K 866 hPa) was 4.349 mole fraction x10^5, the “solubility 10^5x1^exp” value (water+[TEA]La w3=0.1500 298.15 K 866 hPa) was 3.958 mole fraction x10^5 and the “solubility 10^5x1^exp” value (water+[TEA]La w3=0.1500 303.15 K 866 hPa) was 4.151 mole fraction x10^5. The “solubility 10^5x1^exp” value (water+[TEA]La w3=0.1500 308.15 K 866 hPa) was 4.940 mole fraction x10^5, the “solubility 10^5x1^exp” value (water+[TEA]La w3=0.1500 313.15 K 866 hPa) was 5.167 mole fraction x10^5 and the “solubility 10^5x1^exp” value (water+[TEA]La w3=0.2000 298.15 K 866 hPa) was 4.309 mole fraction x10^5. For the same compound, the “solubility 10^5x1^exp” value (water+[TEA]La w3=0.2000 303.15 K 866 hPa) was 4.778 mole fraction x10^5, the “solubility 10^5x1^exp” value (water+[TEA]La w3=0.2000 308.15 K 866 hPa) was 5.362 mole fraction x10^5 and the “solubility 10^5x1^exp” value (water+[TEA]La w3=0.2000 313.15 K 866 hPa) was 5.751 mole fraction x10^5.
